Laboratory results from US20220324835A1 (Nurix Therapeutics, Inc., priority 2018, published 2022).

Tests used:
[1] = target: T1, Cbl-b (Homo sapiens, UniProt Q13191); assay: Cbl-b inhibition assay (Cbl-b activity assay, FRET, Biological Example 1; 100 mM NaCl, 60 nM Src kinase); format: biochemical; details: upper bound stated in text lists; read-out: IC50 values in the Cbl-b inhibition assay of Biological Example 1
How it was run: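 FRET read-out: loss of signal marks inhibition. Mix = biotin-Avi-Cbl-b (N-term), Src kinase, UbcH5B-Ub(Bodipy-FL, irreversible conjugate), streptavidin-Tb, assay buffer.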

[2] = target: T1, Cbl-b; assay: Cbl-b activity assay (Cbl-b inhibition assay), TR-FRET of Cbl-b interaction with UbcH5B-Ub; format: biochemical; details: assay buffer with 100 mM NaCl, 60 nM Src kinase; read-out: Cbl-b activity IC50
How it was run: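 TR-FRET readout of Cbl-b binding to Bodipy-fluorescein N-terminally labeled Ub conjugated to UbcH5B C85K, measured with compound present. After compound incubation, 60 nM Src kinase with 1 mM ATP and 5 mM MgCl2 (final) was added for 1.5 h, then a further 1 h incubation; asterisked values used 50 mM NaCl buffer and 30 nM Src.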

T1 sequence (Q13191 36-427): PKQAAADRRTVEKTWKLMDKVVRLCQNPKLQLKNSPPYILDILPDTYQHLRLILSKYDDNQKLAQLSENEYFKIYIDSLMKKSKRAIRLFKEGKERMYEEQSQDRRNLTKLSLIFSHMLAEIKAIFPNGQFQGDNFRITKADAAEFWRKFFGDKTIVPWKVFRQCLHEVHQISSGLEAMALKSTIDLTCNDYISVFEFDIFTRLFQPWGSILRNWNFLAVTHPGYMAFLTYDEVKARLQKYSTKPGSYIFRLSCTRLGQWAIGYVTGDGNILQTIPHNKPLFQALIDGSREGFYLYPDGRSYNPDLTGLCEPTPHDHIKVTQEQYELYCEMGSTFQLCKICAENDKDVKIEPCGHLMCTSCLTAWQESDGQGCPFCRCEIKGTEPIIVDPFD

**Q.** Which IC50 [1] does the source give for `Cn1cnnc1CC(C)(O)c1cccc(N2Cc3c(cccc3C(F)(F)F)C2=O)c1` (centres unmarked) [Compound 297, 2-(3-(2-hydroxy-1-(4-methyl-4H-1,2,4-triazol-3-yl)propan-2-yl)phenyl)-4-(trifluoromethyl)isoindolin-1-one] here?
**A.** ≤ 10 µM

**Q.** What about the IC50 [2] of the same compound?
**A.** 3 to 10 µM
